Data as given in patent EP0394553A2, “Use of fluorine containing pyridone carboxylic acid derivatives for preparing a medicament for the treatment of HIV infections” (DAIICHI PHARMACEUTICAL CO., LTD., priority 1989, dated 1990).
Where two headings read alike, the source gives them in different places.

Tested on: HIV (LAV 1)
Assay: microbe, parasite or virus in culture
Settings: for viability at 1 µg/mL / viability at 2.5 µg/mL / viability at 5 µg/mL / viability at 10 µg/mL: Human immunodeficiency virus 1, CCRF-CEM
Experimental: Human T cell-derived, T4 antigen-positive CEM cells (provided by the Institut Pasteur, France) were used as host cells of HIV. Cell culture was carried out in a carbon dioxide-containing atmosphere in an incubator maintained at 37°C according to a conventional method [cf. […] The culture supernatant (5×10⁶ TCID₅₀/ml) obtained by subjecting CEM cells to HIV (LAV 1) infection and stored at -70°C was used as the HIV source.
The medium for cell culture (10 ml) placed in a plastic culture flask (25 cm²) was inoculated with CEM cells at a cell density of 2.5×10⁵ cells/ml. After 3 days of incubation, the culture was transferred to a 15-ml centrifuge tube and subjected to centrifugation at 1,000 revolutions per minute for 5 minutes for sedimentation of cells and removal of the culture medium.
The stock viral suspension was added to the host cells thus prepared to an MOI of 0.05 and the mixture was maintained at 37°C for 90 minutes with stirring at 30-minute intervals for viral adsorption. The medium was added to HIV-infected cells to a cell density of 5.0×10⁵ cells/ml to give an HIV-infected cell suspension.
A mixture (1.0 ml) of the three constituents mentioned below was added to each well of a 24-well plastic culture plate and the test substance final concentration was adjusted to 10 mcg/ml, 5 mcg/ml, 2.5 mcg/ml or 1 mcg/ml. The "no addition" wells (0 mcg/ml) served as controls.
After 4 days of incubation following viral infection, the cells in each well on the 24-well culture plate were suspended uniformly by pipetting and a 0.5-ml portion of the suspension was separated. A 2.0-ml portion of test substance-free fresh medium was added to the remaining 0.5-ml portion of the cell suspension, followed by incubation.
Seven days after viral infection, pipetting was performed to give a uniform cell suspension in each well and a 0.5-ml portion of the suspension was separated.
Incubation was continued and, 10 days after viral infection, a uniform cell suspension was produced in the same manner in each well and a 1.5-ml portion thereof was separated. A fresh 2.0-ml portion of the medium free of (or containing) the test substance was added to the well, followed by further incubation.
Fifteen days after viral infection, the cells in each well were suspended uniformly in the same manner in the medium and a 2.0-ml portion of the suspension was separated. A fresh 2.0-ml portion of the medium free of (or containing) the test substance was added to the remaining 0.5 ml of the cell suspension and incubation was continued.
Medium exchange was performed in the same manner 20 days and 25 days after viral infection.
The cell suspensions collected 4 days, 7 days, 10 days, 20 days and 30 days after viral infection were tested for viable cell count and viable cell percentage by trypan blue staining. At the same time, viral antigen-positive cell percentage determination was carried out by immunofluorescence using an anti-HIV antiserum isolated from a healthy carrier of HIV.
The numerical values given each is the mean for the respective two wells on the culture plate. The viable cell count is the total cell count minus the count of dead cells stained with trypan blue. The viable cell percentage is the percentage of viable cells among all the cells including dead cells. The viral antigen-positive cell percentage is the percentage of cells indicating antigen expression as found among all the cells including dead cells.

[1] = 1 mcg/ml, 4-day addition, after 4 days
[2] = 1 mcg/ml, 4-day addition, after 7 days
[3] = 1 mcg/ml, 4-day addition, after 10 days
[4] = 1 mcg/ml, 4-day addition, after 20 days
[5] = 1 mcg/ml, continuous addition, after 4 days
[6] = 1 mcg/ml, continuous addition, after 7 days
[7] = 1 mcg/ml, continuous addition, after 10 days
[8] = 2.5 mcg/ml, 4-day addition, after 4 days
[9] = 2.5 mcg/ml, 4-day addition, after 7 days
[10] = 2.5 mcg/ml, 4-day addition, after 10 days
[11] = 2.5 mcg/ml, 4-day addition, after 20 days
[12] = 2.5 mcg/ml, 4-day addition, after 30 days
[13] = 2.5 mcg/ml, continuous addition, after 4 days
[14] = 2.5 mcg/ml, continuous addition, after 7 days
[15] = 2.5 mcg/ml, continuous addition, after 10 days
[16] = 2.5 mcg/ml, continuous addition, after 20 days
[17] = 2.5 mcg/ml, continuous addition, after 30 days
[18] = 5 mcg/ml, 4-day addition, after 4 days
[19] = 5 mcg/ml, 4-day addition, after 7 days
[20] = 5 mcg/ml, 4-day addition, after 10 days
[21] = 5 mcg/ml, 4-day addition, after 20 days
[22] = 5 mcg/ml, 4-day addition, after 30 days
[23] = 5 mcg/ml, continuous addition, after 4 days
[24] = 5 mcg/ml, continuous addition, after 7 days
[25] = 5 mcg/ml, continuous addition, after 10 days
[26] = 5 mcg/ml, continuous addition, after 20 days
[27] = 5 mcg/ml, continuous addition, after 30 days
[28] = 10 mcg/ml, 4-day addition, after 4 days
[29] = 10 mcg/ml, 4-day addition, after 7 days
[30] = 10 mcg/ml, 4-day addition, after 10 days
[31] = 10 mcg/ml, 4-day addition, after 20 days
[32] = 10 mcg/ml, 4-day addition, after 30 days
[33] = 10 mcg/ml, continuous addition, after 4 days
[34] = 10 mcg/ml, continuous addition, after 7 days
[35] = 10 mcg/ml, continuous addition, after 10 days
[36] = 10 mcg/ml, continuous addition, after 20 days
[37] = 10 mcg/ml, continuous addition, after 30 days

CC1COc2c(N3CCN(C)CC3)c(F)cc3c(=O)c(C(=O)O)cn1c23 (racemic) [OFLX, (±)-9-fluoro-3-methyl-10-(4-methyl-1-piperazinyl)-7-oxo-2,3-dihydro-7H-pyrido[1,2,3-de][1,4]benzoxazine-6-carboxylic acid]
Viable cell count [1]: 260 × 10⁴ cells/ml | Viral antigen-positive cell percentage [1]: 88% | Viable cell count [2]: 43 × 10⁴ cells/ml | Viral antigen-positive cell percentage [2]: 80% | Viable cell count [3]: 13 × 10⁴ cells/ml | Viral antigen-positive cell percentage [3]: 77% | Viable cell count [4]: 34 × 10⁴ cells/ml | Viral antigen-positive cell percentage [4]: 16% | Viable cell count (1 mcg/ml, 4-day addition, after 30 days): 10 × 10⁴ cells/ml | Viable cell count [5]: 300 × 10⁴ cells/ml | Viral antigen-positive cell percentage [5]: 82% | Viable cell count [6]: 39 × 10⁴ cells/ml | Viral antigen-positive cell percentage [6]: 78% | Viable cell count [7]: 46 × 10⁴ cells/ml | Viral antigen-positive cell percentage [7]: 85% | Viable cell count (1 mcg/ml, continuous addition, after 20 days): 15 × 10⁴ cells/ml | Viable cell count (1 mcg/ml, continuous addition, after 30 days): 11 × 10⁴ cells/ml | Viable cell count [8]: 260 × 10⁴ cells/ml | Viral antigen-positive cell percentage [8]: 80% | Viable cell count [9]: 58 × 10⁴ cells/ml | Viral antigen-positive cell percentage [9]: 67% | Viable cell count [10]: 83 × 10⁴ cells/ml | Viral antigen-positive cell percentage [10]: 49% | Viable cell count [11]: 300 × 10⁴ cells/ml | Viral antigen-positive cell percentage [11]: 4% | Viable cell count [12]: 300 × 10⁴ cells/ml | Viral antigen-positive cell percentage [12]: 6% | Viable cell count [13]: 260 × 10⁴ cells/ml | Viral antigen-positive cell percentage [13]: 83% | Viable cell count [14]: 59 × 10⁴ cells/ml | Viral antigen-positive cell percentage [14]: 62% | Viable cell count [15]: 110 × 10⁴ cells/ml | Viral antigen-positive cell percentage [15]: 38% | Viable cell count [16]: 220 × 10⁴ cells/ml | Viral antigen-positive cell percentage [16]: 17% | Viable cell count [17]: 360 × 10⁴ cells/ml | Viral antigen-positive cell percentage [17]: 10% | Viable cell count [18]: 250 × 10⁴ cells/ml | Viral antigen-positive cell percentage [18]: 82% | Viable cell count [19]: 60 × 10⁴ cells/ml | Viral antigen-positive cell percentage [19]: 50% | Viable cell count [20]: 170 × 10⁴ cells/ml | Viral antigen-positive cell percentage [20]: 33% | Viable cell count [21]: 320 × 10⁴ cells/ml | Viral antigen-positive cell percentage [21]: 5% | Viable cell count [22]: 330 × 10⁴ cells/ml | Viral antigen-positive cell percentage [22]: 4% | Viable cell count [23]: 340 × 10⁴ cells/ml | Viral antigen-positive cell percentage [23]: 75% | Viable cell count [24]: 58 × 10⁴ cells/ml | Viral antigen-positive cell percentage [24]: 76% | Viable cell count [25]: 160 × 10⁴ cells/ml | Viral antigen-positive cell percentage [25]: 40% | Viable cell count [26]: 300 × 10⁴ cells/ml | Viral antigen-positive cell percentage [26]: 11% | Viable cell count [27]: 290 × 10⁴ cells/ml | Viral antigen-positive cell percentage [27]: 2% | Viable cell count [28]: 260 × 10⁴ cells/ml | Viral antigen-positive cell percentage [28]: 74% | Viable cell count [29]: 63 × 10⁴ cells/ml | Viral antigen-positive cell percentage [29]: 63% | Viable cell count [30]: 280 × 10⁴ cells/ml | Viral antigen-positive cell percentage [30]: 40% | Viable cell count [31]: 310 × 10⁴ cells/ml | Viral antigen-positive cell percentage [31]: 14% | Viable cell count [32]: 320 × 10⁴ cells/ml | Viral antigen-positive cell percentage [32]: 3% | Viable cell count [33]: 280 × 10⁴ cells/ml | Viral antigen-positive cell percentage [33]: 78% | Viable cell count [34]: 55 × 10⁴ cells/ml | Viral antigen-positive cell percentage [34]: 72% | Viable cell count [35]: 130 × 10⁴ cells/ml | Viral antigen-positive cell percentage [35]: 43% | Viable cell count [36]: 290 × 10⁴ cells/ml | Viral antigen-positive cell percentage [36]: 9% | Viable cell count [37]: 390 × 10⁴ cells/ml | Viral antigen-positive cell percentage [37]: 6% | viability at 1 µg/mL (96 h, read-out: Viable cell percentage, 1 mcg/ml, 4-day addition, after 4 days): 96% | viability at 1 µg/mL (96 h, read-out: Viable cell percentage, 1 mcg/ml, continuous addition, after 4 days): 94% | viability at 2.5 µg/mL (96 h, read-out: Viable cell percentage, 2.5 mcg/ml, 4-day addition, after 4 days): 96% | viability at 2.5 µg/mL (96 h, read-out: Viable cell percentage, 2.5 mcg/ml, continuous addition, after 4 days): 94% | viability at 5 µg/mL (96 h, read-out: Viable cell percentage, 5 mcg/ml, 4-day addition, after 4 days): 93% | viability at 5 µg/mL (96 h, read-out: Viable cell percentage, 5 mcg/ml, continuous addition, after 4 days): 98% | viability at 10 µg/mL (96 h, read-out: Viable cell percentage, 10 mcg/ml, 4-day addition, after 4 days): 94% | viability at 10 µg/mL (96 h, read-out: Viable cell percentage, 10 mcg/ml, continuous addition, after 4 days): 95% | viability at 1 µg/mL (168 h, read-out: Viable cell percentage, 1 mcg/ml, continuous addition, after 7 days): 55% | viability at 2.5 µg/mL (168 h, read-out: Viable cell percentage, 2.5 mcg/ml, continuous addition, after 7 days): 64% | viability at 5 µg/mL (168 h, read-out: Viable cell percentage, 5 mcg/ml, continuous addition, after 7 days): 64% | viability at 10 µg/mL (168 h, read-out: Viable cell percentage, 10 mcg/ml, continuous addition, after 7 days): 66% | viability at 1 µg/mL (240 h, read-out: Viable cell percentage, 1 mcg/ml, continuous addition, after 10 days): 42% | viability at 2.5 µg/mL (240 h, read-out: Viable cell percentage, 2.5 mcg/ml, continuous addition, after 10 days): 81% | viability at 5 µg/mL (240 h, read-out: Viable cell percentage, 5 mcg/ml, continuous addition, after 10 days): 87% | viability at 10 µg/mL (240 h, read-out: Viable cell percentage, 10 mcg/ml, continuous addition, after 10 days): 87% | viability at 1 µg/mL (480 h, read-out: Viable cell percentage, 1 mcg/ml, continuous addition, after 20 days): 75% | viability at 2.5 µg/mL (480 h, read-out: Viable cell percentage, 2.5 mcg/ml, continuous addition, after 20 days): 94% | viability at 5 µg/mL (480 h, read-out: Viable cell percentage, 5 mcg/ml, continuous addition, after 20 days): 95% | viability at 10 µg/mL (480 h, read-out: Viable cell percentage, 10 mcg/ml, continuous addition, after 20 days): 92% | viability at 1 µg/mL (read-out: Viable cell percentage, 1 mcg/ml, 4-day addition, after 7 days): 53% | viability at 1 µg/mL (read-out: Viable cell percentage, 1 mcg/ml, 4-day addition, after 10 days): 21% | viability at 1 µg/mL (read-out: Viable cell percentage, 1 mcg/ml, 4-day addition, after 20 days): 87% | viability at 1 µg/mL (read-out: Viable cell percentage, 1 mcg/ml, 4-day addition, after 30 days): 37% | viability at 1 µg/mL (read-out: Viable cell percentage, 1 mcg/ml, continuous addition, after 30 days): 33% | viability at 2.5 µg/mL (read-out: Viable cell percentage, 2.5 mcg/ml, 4-day addition, after 7 days): 67% | viability at 2.5 µg/mL (read-out: Viable cell percentage, 2.5 mcg/ml, 4-day addition, after 10 days): 67% | viability at 2.5 µg/mL (read-out: Viable cell percentage, 2.5 mcg/ml, 4-day addition, after 20 days): 95% | viability at 2.5 µg/mL (read-out: Viable cell percentage, 2.5 mcg/ml, 4-day addition, after 30 days): 97% | viability at 2.5 µg/mL (read-out: Viable cell percentage, 2.5 mcg/ml, continuous addition, after 30 days): 97% | viability at 5 µg/mL (read-out: Viable cell percentage, 5 mcg/ml, 4-day addition, after 7 days): 59% | viability at 5 µg/mL (read-out: Viable cell percentage, 5 mcg/ml, 4-day addition, after 10 days): 77% | viability at 5 µg/mL (read-out: Viable cell percentage, 5 mcg/ml, 4-day addition, after 20 days): 86% | viability at 5 µg/mL (read-out: Viable cell percentage, 5 mcg/ml, 4-day addition, after 30 days): 97% | viability at 5 µg/mL (read-out: Viable cell percentage, 5 mcg/ml, continuous addition, after 30 days): 94% | viability at 10 µg/mL (read-out: Viable cell percentage, 10 mcg/ml, 4-day addition, after 7 days): 73% | viability at 10 µg/mL (read-out: Viable cell percentage, 10 mcg/ml, 4-day addition, after 10 days): 85% | viability at 10 µg/mL (read-out: Viable cell percentage, 10 mcg/ml, 4-day addition, after 20 days): 92% | viability at 10 µg/mL (read-out: Viable cell percentage, 10 mcg/ml, 4-day addition, after 30 days): 95% | viability at 10 µg/mL (read-out: Viable cell percentage, 10 mcg/ml, continuous addition, after 30 days): 95%
